Laboratory results: the supplement of paper PMC10307832

Key:
Assay in all cases: relative viability (nuclei count vs DMSO), 5 days (fraction); higher = more cells survive
[1] = compound: C[C@@]1(C(=O)Nc2ccc(F)nc2)CCCN1c1nc(Nc2cc(C3CC3)n[nH]2)c2cccn2n1 + N=C(N)NC(=N)NCCc1ccccc1 [Phenformin] (partner 250 µM)
How it was run: (§1)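 The day after seeding in 1536-well plates, lung cancer cell lines were treated by pin tool with a single drug, or with a fixed anchor-drug dose together with five library-drug doses (not always all listed) in √10 steps. After 5 days, a combined fix-and-stain solution (final 0.05% Triton X-100, 1% formaldehyde, 1 ug/ml Hoechst) was added. Nuclei counted on 4× images gave relative viability as treated counts over vehicle counts, reported as the median of duplicate plates.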

[2] = compound: C[C@@]1(C(=O)Nc2ccc(F)nc2)CCCN1c1nc(Nc2cc(C3CC3)n[nH]2)c2cccn2n1 + CC(=O)c1c(C)c2cnc(Nc3ccc(N4CCNCC4)cn3)nc2n(C2CCCC2)c1=O [Palbociclib] (partner 0.5 µM)
How it was run: as §1

Motesanib + Lapatinib = compound: CC1(C)CNc2cc(NC(=O)c3cccnc3NCc3ccncc3)ccc21 [Motesanib] + CS(=O)(=O)CCNCc1ccc(-c2ccc3ncnc(Nc4ccc(OCc5cccc(F)c5)c(Cl)c4)c3c2)o1 [Lapatinib] (partner 2 µM)
How it was run: as §1

[3] = compound: C[C@@]1(C(=O)Nc2ccc(F)nc2)CCCN1c1nc(Nc2cc(C3CC3)n[nH]2)c2cccn2n1 + CCNC(=O)c1noc(-c2cc(C(C)C)c(O)cc2O)c1-c1ccc(CN2CCOCC2)cc1 [Luminespib] (partner 0.01 µM)
How it was run: as §1

Cell Line | relative viability ([1]; first compound 0.04 µM) | relative viability ([1]; first compound 0.1265 µM) | relative viability ([1]; first compound 0.4 µM) | relative viability ([1]; first compound 1.265 µM) | relative viability ([2]; first compound 0.04 µM) | relative viability ([2]; first compound 0.1265 µM) | relative viability ([2]; first compound 0.4 µM) | relative viability ([2]; first compound 1.265 µM) | relative viability (Motesanib + Lapatinib; first compound 0.01 µM) | relative viability (Motesanib + Lapatinib; first compound 0.03162 µM) | relative viability (Motesanib + Lapatinib; first compound 0.1 µM) | relative viability (Motesanib + Lapatinib; first compound 0.3162 µM) | relative viability (Motesanib + Lapatinib; first compound 1 µM) | relative viability ([3]; first compound 0.04 µM) | relative viability ([3]; first compound 0.1265 µM) | relative viability ([3]; first compound 0.4 µM) | relative viability ([3]; first compound 1.265 µM)
NCI-H1437 | 0.257 | 0.253 | 0.214 | 0.171 | 0.302 | 0.278 | 0.252 | 0.234 | 0.719 | 0.78 | 0.756 | 0.9 | 0.781 | 1.18 | 1.19 | 1.01 | 1.02
NCI-H460 | 0.53 | 0.436 | 0.36 | 0.239 | 0.226 | 0.0841 | 0.058 | 0.143 | 0.961 | 0.779 | 0.892 | 0.974 | 0.864 | 0.0318 | 0.0246 | 0.0368 | 0.0359
NCI-H1666 | 0.554 | 0.529 | 0.635 | 0.487 | 0.647 | 0.627 | 0.599 | 0.603 | 0.882 | 0.709 | 0.691 | 0.69 | 0.667 | 0.915 | 0.932 | 0.825 | 0.812
NCI-H1651 | 0.283 | 0.287 | 0.269 | 0.283 | 0.494 | 0.442 | 0.439 | 0.491 | 0.704 | 0.706 | 0.699 | 0.921 | 0.786 | 0.916 | 0.715 | 0.768 | 0.71
NCI-H1755 | 0.638 | 0.55 | 0.53 | 0.547 | 0.403 | 0.433 | 0.469 | 0.494 | 1.02 | 1.05 | 1.08 | 1.28 | 0.997 | 0.616 | 0.357 | 0.406 | 0.437
NCI-H661 | 0.245 | 0.235 | 0.233 | 0.229 | 0.388 | 0.427 | 0.412 | 0.386 | 0.429 | 0.563 | 0.511 | 0.386 | 0.49 | 0.973 | 1.06 | 1.05 | 1.02
HARA | 0.431 | 0.386 | 0.395 | 0.442 | 0.238 | 0.189 | 0.159 | 0.218 | 0.698 | 0.668 | 0.77 | 0.742 | 0.804 | 0.72 | 0.73 | 0.585 | 0.881
NCI-H23 | 0.703 | 0.648 | 0.533 | 0.704 | 0.386 | 0.267 | 0.243 | 0.305 | 1.14 | 0.864 | – | 1.13 | 1.11 | 0.21 | 0.211 | 0.213 | 0.214
LCLC-97TM1 | 0.333 | 0.133 | 0.129 | 0.12 | 0.0888 | 0.108 | 0.0814 | 0.145 | 1.04 | 0.96 | 0.688 | 1.09 | 0.967 | 0.342 | 0.272 | 0.23 | 0.378
EPLC-272H | 0.315 | – | 0.251 | 0.275 | 0.253 | 0.308 | 0.285 | 0.261 | 1 | 0.943 | 0.847 | 0.925 | 0.898 | 0.214 | – | 0.187 | 0.272
NCI-H1915 | 0.372 | 0.381 | 0.378 | 0.347 | 0.534 | 0.507 | 0.52 | 0.551 | 0.99 | 0.929 | 0.866 | 0.939 | 1.01 | 0.816 | 0.736 | 0.781 | 0.862
NCI-H2405 | 0.351 | 0.273 | 0.226 | 0.276 | 0.47 | 0.303 | 0.391 | 0.402 | – | 1.05 | 1.09 | 1.16 | 1.12 | 0.549 | 0.489 | 0.374 | 0.432
NCI-H322M | 0.686 | 0.561 | 0.531 | 0.499 | 0.393 | 0.362 | 0.374 | 0.45 | 0.553 | 0.372 | 0.696 | 0.587 | 0.566 | 0.583 | 0.405 | 0.406 | 0.566
NCI-H2170 | 0.432 | 0.396 | 0.419 | 0.357 | 0.362 | 0.396 | 0.369 | 0.371 | 0.243 | 0.282 | 0.228 | 0.262 | 0.293 | 0.521 | 0.505 | 0.45 | 0.521
NCI-H1395 | 0.428 | 0.42 | 0.5 | 0.481 | 0.658 | 0.603 | 0.609 | 0.625 | 0.925 | 1.03 | 1.04 | 1.08 | 0.959 | 0.768 | 0.717 | 0.583 | 0.889
NCI-H358 | 0.212 | 0.144 | 0.113 | 0.115 | 0.112 | 0.121 | 0.115 | 0.107 | 0.489 | 0.472 | 0.424 | 0.555 | 0.463 | 0.35 | 0.143 | 0.111 | 0.238
NCI-H838 | 0.563 | 0.449 | 0.308 | 0.37 | 0.241 | 0.191 | 0.185 | 0.17 | 0.98 | 1.03 | 0.914 | 1.19 | 1.02 | 0.296 | 0.291 | 0.183 | 0.338
CAL-12T | 0.575 | 0.507 | 0.464 | 0.207 | 0.407 | 0.407 | 0.358 | 0.164 | – | – | 0.67 | 0.649 | 0.65 | 0.446 | 0.391 | 0.487 | 0.116
